Reference: EP0973746B1, “SUBSTITUTED 3-CYANO QUINOLINES” (Wyeth Holdings Corporation, priority 1997, dated 1998)
Converted amounts (≈) assume the structure as drawn.

What was measured:
[1] = biological target: recombinant human MEK 1 (MAPKK) and recombinant human ERK2 (MAPK); test: Mitogen Activated Protein Kinase (MAPK) assay, two component coupled MEK 1 / ERK2; type: biochemical; settings: separate entries for the same compound = evaluated more than one time;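 note: MEK 1-activated ERK2 phosphorylates MBP or Myc peptide with 33P-ATP, filter capture and scintillation counting, inhibitor preincubated with ERK2 30 min at 0 °C, inhibition relative to uninhibited control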
LNCAP = test: Inhibition of cancer cell growth as measured by cell number, LNCAP; type: cell-based; settings: Homo sapiens, cell number, Sulforhodamine B, 48 hours exposure, Table 7, read-out: IC50 LNCAP
CX1 = test: Inhibition of cancer cell growth as measured by cell number, CX1; type: cell-based; settings: Homo sapiens, CX-1; cell number, Sulforhodamine B, 48 hours exposure; Table 4; read-out: IC50 CX1
SKBR3 = test: Inhibition of cancer cell growth as measured by cell number, SKBR3; type: cell-based, human; settings: Homo sapiens, SK-BR-3; cell number, Sulforhodamine B, 48 hours exposure; Table 7; read-out: IC50 SKBR3;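 note: SK-BR-3 cells were selected as a line overexpressing HER2/neu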
Source text: (§1) The cell lines were chosen since they overexpressed epidermal growth factor receptor (EGFR) (i.e. A431) or HER2/neu (SKBR3), or had little to no expression of the these receptors (SW620, LOX, MCF7).

HTB161 = test: Inhibition of cancer cell growth as measured by cell number, HTB161; type: cell-based; settings: Homo sapiens; cell number, Sulforhodamine B, 48 hours exposure; Table 4; read-out: IC50 HTB161
A27805 = test: Inhibition of cancer cell growth as measured by cell number, A27805; type: cell-based; settings: Homo sapiens; cell number, Sulforhodamine B, 48 hours exposure; Table 4; read-out: IC50 A27805
NHEK = test: Inhibition of cell growth by incorporation of [3H]-thymidine, NHEK; type: cell-based, human; settings: Homo sapiens, [3H]-thymidine incorporation, read-out: IC50 NHEK
Procedure: Representative compounds of this invention were evaluated for their ability to inhibit the growth of the cell lines described below in vitro. The inhibition is quantitated by measuring the decrease in the incorporation of radio-labeled thymidine when the cells are grown in the presence of the inhibitor. […] Cells were routinely grown in a humidified incubator in 5% CO2 in air.
Cells were seeded at 10,000 cells/well in 96 well plates in complete media and allowed to grow to log phase. At this stage the complete media was replaced with media containing 0.5% FBS (for cells growing in 10% FBS) or media lacking epidermal growth factor (EGF) (for cells growing in serum free media). […] Media with test compound was then removed and complete media was added back. The cells were allowed to grow for 18 hours. This is followed by incubation in [^3H]thymidine (1mCi/ml in serum/EGF media) for 4 hours. Cells were lysed in 0.5 M NaOH for at least 30 min at 37°C and radioactivity analyzed.
The % inhibition of the compound evaluated was determined for at least three different concentrations and the IC50 value evaluated from the dose response curve. […] CPM(control) is in units of counts per minute and is a number expressing the amount of [^3H]thymidine incorporated onto the DNA when cells are grown in the absence of test compound as measured by liquid scintillation counting.

LS174T = test: Inhibition of cancer cell growth as measured by cell number, LS174T; type: cell-based; settings: Homo sapiens, cell number, Sulforhodamine B, 48 hours exposure, Table 5, read-out: IC50 LS174T
LOX = test: Inhibition of cancer cell growth as measured by cell number, LOX; type: cell-based, human; settings: Homo sapiens, LOX, 48 h, cell number, Sulforhodamine B, 48 hours exposure; Table 6; read-out: IC50 LOX;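 note: LOX cells served as a line with low or absent EGFR and HER2/neu expression, in contrast to receptor-overexpressing lines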
Source text: as §1

[2] = biological target: epidermal growth factor receptor kinase (Homo sapiens, UniProt P00533); test: biochemical
CCRF-CFM = test: Inhibition of cancer cell growth as measured by cell number, CCRF-CFM; type: cell-based; settings: Homo sapiens; cell number, Sulforhodamine B, 48 hours exposure; Table 7; read-out: IC50 CCRF-CFM
DU145 = test: Inhibition of cancer cell growth as measured by cell number, DU145; type: cell-based; settings: Homo sapiens, DU-145; cell number, Sulforhodamine B, 48 hours exposure; Table 7; read-out: IC50 DU145
CACO2 = test: Inhibition of cancer cell growth as measured by cell number, CACO2; type: cell-based; settings: Homo sapiens, Caco-2; cell number, Sulforhodamine B, 48 hours exposure; Table 5; read-out: IC50 CACO2
CCL228 = test: Inhibition of cancer cell growth as measured by cell number, CCL228; type: cell-based; settings: Homo sapiens; cell number, Sulforhodamine B, 48 hours exposure; Table 5; read-out: IC50 CCL228
A2780DDP = test: Inhibition of cancer cell growth as measured by cell number, A2780DDP; type: cell-based; settings: Homo sapiens; cell number, Sulforhodamine B, 48 hours exposure; Table 4; read-out: IC50 A2780DDP
MCF7 = test: Inhibition of cancer cell growth as measured by cell number, MCF7; type: cell-based, human; settings: Homo sapiens, MCF7, 48 h, cell number, Sulforhodamine B, 48 hours exposure; Table 5; read-out: IC50 MCF7;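 note: MCF7 was included as a line with little or no EGFR or HER2/neu expression, in contrast to the receptor-overexpressing lines of the panel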
Source text: as §1

PC3 = test: Inhibition of cancer cell growth as measured by cell number, PC3; type: cell-based; settings: Homo sapiens, PC-3; cell number, Sulforhodamine B, 48 hours exposure; Table 7; read-out: IC50 PC3
COLO205 = test: Inhibition of cancer cell growth as measured by cell number, COLO205; type: cell-based; settings: Homo sapiens, COLO 205; cell number, Sulforhodamine B, 48 hours exposure; Table 4; read-out: IC50 COLO205
A431 [3] = test: Inhibition of cancer cell growth as measured by cell number, A431; type: cell-based, human; settings: Homo sapiens, A-431, 48 h, cell number, Sulforhodamine B, 48 hours exposure; Table 6; read-out: IC50 A431;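 note: human A431 line, picked because it overexpresses epidermal growth factor receptor (EGFR)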
Source text: as §1

A431 [4] = test: Inhibition of cell growth by incorporation of [3H]-thymidine, A431; type: cell-based, human; settings: Homo sapiens, A-431; [3H]-thymidine incorporation; A431; read-out: IC50 A431
LX1 = test: Inhibition of cancer cell growth as measured by cell number, LX1; type: cell-based; settings: Homo sapiens, LX-1; cell number, Sulforhodamine B, 48 hours exposure; Table 6; read-out: IC50 LX1
A549 = test: Inhibition of cancer cell growth as measured by cell number, A549; type: cell-based; settings: Homo sapiens, A549; cell number, Sulforhodamine B, 48 hours exposure; Table 6; read-out: IC50 A549
T47D = test: Inhibition of cancer cell growth as measured by cell number, T47D; type: cell-based; settings: Homo sapiens, cell number, Sulforhodamine B, 48 hours exposure, Table 6, read-out: IC50 T47D
HL60 = test: Inhibition of cancer cell growth as measured by cell number, HL60; type: cell-based; settings: Homo sapiens, HL-60; cell number, Sulforhodamine B, 48 hours exposure; Table 7; read-out: IC50 HL60
NEC = test: Inhibition of cancer cell growth as measured by cell number, NEC; type: cell-based; settings: Homo sapiens; cell number, Sulforhodamine B, 48 hours exposure; Table 6; read-out: IC50 NEC
SW620 = test: Inhibition of cancer cell growth as measured by cell number, SW620; type: cell-based, human; settings: Homo sapiens, SW-620, 48 h, cell number, Sulforhodamine B, 48 hours exposure; Table 4; read-out: IC50 SW620;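 note: SW620 was included as a cell line with little or no EGFR or HER2/neu expression, in contrast to receptor-overexpressing lines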
Source text: as §1

HCT15 = test: Inhibition of cancer cell growth as measured by cell number, HCT15; type: cell-based; settings: Homo sapiens, HCT-15; cell number, Sulforhodamine B, 48 hours exposure; Table 5; read-out: IC50 HCT15
MIP = test: Inhibition of cancer cell growth as measured by cell number, MIP; type: cell-based; settings: Homo sapiens; cell number, Sulforhodamine B, 48 hours exposure; Table 4; read-out: IC50 MIP
SW948 = test: Inhibition of cancer cell growth as measured by cell number, SW948; type: cell-based; settings: Homo sapiens, SW948; cell number, Sulforhodamine B, 48 hours exposure; Table 5; read-out: IC50 SW948
B7474 = test: Inhibition of cancer cell growth as measured by cell number, B7474; type: cell-based; settings: Homo sapiens; cell number, Sulforhodamine B, 48 hours exposure; Table 6; read-out: IC50 B7474

Sequence of epidermal growth factor receptor kinase (P00533 25-1210): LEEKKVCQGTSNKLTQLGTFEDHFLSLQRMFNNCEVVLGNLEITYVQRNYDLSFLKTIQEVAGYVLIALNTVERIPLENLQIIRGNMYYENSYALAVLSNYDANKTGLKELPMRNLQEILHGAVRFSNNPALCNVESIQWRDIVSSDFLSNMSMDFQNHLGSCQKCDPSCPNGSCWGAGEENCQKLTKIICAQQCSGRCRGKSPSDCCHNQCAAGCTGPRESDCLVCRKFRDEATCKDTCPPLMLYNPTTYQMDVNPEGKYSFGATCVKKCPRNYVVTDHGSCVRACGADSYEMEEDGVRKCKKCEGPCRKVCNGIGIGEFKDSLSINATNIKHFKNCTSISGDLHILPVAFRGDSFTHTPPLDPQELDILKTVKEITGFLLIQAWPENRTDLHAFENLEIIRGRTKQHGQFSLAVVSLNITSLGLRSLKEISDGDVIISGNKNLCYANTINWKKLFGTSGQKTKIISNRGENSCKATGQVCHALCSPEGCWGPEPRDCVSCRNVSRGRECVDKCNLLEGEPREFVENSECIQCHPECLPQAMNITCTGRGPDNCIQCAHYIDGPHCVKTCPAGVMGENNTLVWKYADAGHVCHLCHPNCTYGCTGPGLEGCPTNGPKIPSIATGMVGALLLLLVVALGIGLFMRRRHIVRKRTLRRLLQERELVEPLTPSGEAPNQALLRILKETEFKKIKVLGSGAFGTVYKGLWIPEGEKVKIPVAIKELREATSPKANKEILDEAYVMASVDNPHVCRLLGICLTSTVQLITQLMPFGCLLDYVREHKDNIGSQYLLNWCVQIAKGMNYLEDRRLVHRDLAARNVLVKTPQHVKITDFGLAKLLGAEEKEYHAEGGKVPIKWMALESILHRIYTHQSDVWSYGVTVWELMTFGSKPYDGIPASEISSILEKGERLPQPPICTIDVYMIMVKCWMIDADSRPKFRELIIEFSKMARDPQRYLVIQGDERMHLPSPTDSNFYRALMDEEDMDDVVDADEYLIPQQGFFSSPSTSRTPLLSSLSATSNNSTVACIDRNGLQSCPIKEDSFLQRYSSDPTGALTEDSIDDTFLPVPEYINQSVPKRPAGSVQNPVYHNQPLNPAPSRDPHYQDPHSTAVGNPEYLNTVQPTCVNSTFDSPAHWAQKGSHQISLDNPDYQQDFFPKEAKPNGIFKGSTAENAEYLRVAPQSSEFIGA

CCCC(=O)Nc1ccc2ncc(C#N)c(Nc3cccc(Br)c3)c2c1 [Example 17, N-[4-[(3-Bromophenyl)amino]-3-cyano-6-quinolinyl] butanamide]
IC50 [1]: > 100 µM | IC50 (LNCAP): 90 µg/mL (≈ 220 µM) | IC50 (CX1): 81.9 µg/mL (≈ 200 µM) | IC50 (SKBR3): 79.7 µg/mL (≈ 195 µM) | IC50 (HTB161): 7.89 µg/mL (≈ 19.3 µM) | IC50 (A27805): 9.8 µg/mL (≈ 23.9 µM) | IC50 (NHEK): 9 µM | IC50 (LS174T): 87 µg/mL (≈ 213 µM) | IC50 (LOX): 74.2 µg/mL (≈ 181 µM) | IC50 [2]: 9 µM | IC50 (CCRF-CFM): > 100 µg/mL | IC50 (DU145): 7.81 µg/mL (≈ 19.1 µM) | IC50 (CACO2): 5.63 µg/mL (≈ 13.8 µM) | IC50 (CCL228): > 100 µg/mL | IC50 (A2780DDP): 60.4 µg/mL (≈ 147 µM) | IC50 (MCF7): 68.2 µg/mL (≈ 167 µM) | IC50 (PC3): > 100 µg/mL | IC50 (COLO205): > 100 µg/mL | IC50 (A431 [3]): 38.1 µg/mL (≈ 93 µM) | IC50 (A431 [4]): 25 µM | IC50 (LX1): > 100 µg/mL | IC50 (A549): > 100 µg/mL | IC50 (T47D): > 100 µg/mL | IC50 (HL60): > 100 µg/mL | IC50 (NEC): > 100 µg/mL | IC50 (SW620): > 100 µg/mL | IC50 (HCT15): 98.9 µg/mL (≈ 242 µM) | IC50 (MIP): 100 µg/mL (≈ 244 µM) | IC50 (SW948): > 100 µg/mL | IC50 (B7474): 95.7 µg/mL (≈ 234 µM)
